Measured values from patent publication US20130203602A1, “SUPPORTED BIOLOGICALLY ACTIVE COMPOUNDS” (Danmarks Tekniske Universitet, priority 2010, published 2013).
Marks after values point to notes of the source that are not given here.

Experiment: Thermal stability determination by thermogravimetric analysis (TGA)
Type: physicochemical
Conditions: for temperature at which it starts to decompose: heated neat; for Inflection point / T5% onset temperature: not supported/neat; for Inflection point: TGA 25-800° C., 5° C./min, under air; for T5% onset temperature: TGA 5° C./min, under nitrogen

Nc1nc2c(ncn2COCCO)c(=O)[nH]1 [Acyclovir, reference compound]
temperature at which it starts to decompose: around 249 °C | Inflection point: 249 °C

CC(C)Cc1ccc(C(C)C(=O)O)cc1 (stereo not shown) [Ibuprofene, reference compound]
temperature at which it starts to decompose: around 150 °C | T5% onset temperature: 155* ° C.

CC(C)Cc1ccc(C(C)C(=O)O)cc1 (stereo not shown) [Tetrabutylphosphonium Ibuprofenate [7]]
T5% onset temperature: 236* ° C.

O=C(O)CNCP(=O)(O)O [Tetraethylammonium Glyphosate [6], Tetraethylammonium Glyphosate]
Inflection point: 150 °C

Nc1nc2c(ncn2COCCO)c(=O)[nH]1 [Trimethylhexadecylammonium acyclovir [3]] [Trimethylhexadecylammonium Aciclovir]
Inflection point: 189 °C

CC(C)Cc1ccc(C(C)C(=O)O)cc1.CCN(CC)CC(=O)Nc1c(C)cccc1C [[8], Lidocainium Ibuprofenate]
T5%onset (neat compound, given with the synthesis example): 177 °C

Itraconazolium Dioctylsulfosuccinate [Itraconazolium Dioctylsulfosuccinate [5]]
Inflection point: 257 °C

Tributylmethylammonium Acyclovir [Tributylmethylammonium Acyclovir [2]]
Inflection point: 203 °C
